test system: DMPK; experiment: DMPK knockdown by transfected antisense oligonucleotides in DM1 C15 myotubes at 0.5 nM and 50 nM; assay type: cell-based; settings: 0.5 nM oligonucleotide, 72 hours
Procedure, shortened: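 Seven-day-differentiated DM1 C15 myotubes transfected (Lipofectamine MessengerMax) with each oligonucleotide at 0.5 nM or 50 nM final, biological triplicates. After 72 h, DMPK mRNA quantified by qPCR, expressed relative to vehicle-only transfection set to 1.00.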

Substance | Percent DMPK Reduction [%]
424 (CCAUUCACCAACACGUCCCU; chemistry not given here) [compound 424] | 39.26
425 (ACCAGGUACAGGUAGUUCUC; chemistry not given here) [compound 425] | 16.09
426 (CTGCAGUUUGCCCAUCCACG; chemistry not given here) [compound 426] | -10.69
427 (UUGUUCAUGAUCUUCAUGGC; chemistry not given here) [compound 427] | 14.13
428 (UUGAUGUCCCUGUGCACGU; chemistry not given here) [compound 428] | 6.92
429 (GCGGUCCAGCAGGAUGUUGU; chemistry not given here) [compound 429] | 38.84
430 (GUCUAUGGCCAUGACAAUCU; chemistry not given here) [compound 430] | -11.00
431 (GGAGCAGGGAAAGCGCCUCC; chemistry not given here) [compound 431] | 21.46
432 (UGCCUCGCGUAGUUGACUGG; chemistry not given here) [compound 432] | 11.03
433 (GCGGAUGGCCUCCAUCUCCC; chemistry not given here) [compound 433] | 21.25
434 (UUUCAUAGGCGAAUACACCC; chemistry not given here) [compound 434] | 5.56
435 (GCCUGUCAGCGAGUCGGAGG; chemistry not given here) [compound 435] | 10.81
436 (CCACUUCAGCUGUUUCAUCC; chemistry not given here) [compound 436] | 22.40
437 (CAUCCGCUCCUGCAACUGCC; chemistry not given here) [compound 437] | 21.04
438 (UCUAGGGUUCAGGGAGCGCG; chemistry not given here) [compound 438] | 21.81
439 (CACCAACACGUCCCUCUCCU; chemistry not given here) [compound 439] | 37.51
440 (CAGGAGCAGGGAAAGCGCCU; chemistry not given here) [compound 440] | 12.48
441 (CAAUCUCCGCCAGGUAGAAG; chemistry not given here) [compound 441] | 15.95
442 (AUGUUGUCGGGUUUGAUGUC; chemistry not given here) [compound 442] | 16.93
443 (CCAUCCGCUCCUGCAACUGC; chemistry not given here) [compound 443] | 19.53

same assay, conditions: 0.5 nM oligonucleotide, 72 hours, relative to vehicle control = 1.00

Substance | Normalized DMPK Remaining
424 (CCAUUCACCAACACGUCCCU; chemistry not given here) [compound 424] | 0.61
425 (ACCAGGUACAGGUAGUUCUC; chemistry not given here) [compound 425] | 0.84
426 (CTGCAGUUUGCCCAUCCACG; chemistry not given here) [compound 426] | 1.11
427 (UUGUUCAUGAUCUUCAUGGC; chemistry not given here) [compound 427] | 0.86
428 (UUGAUGUCCCUGUGCACGU; chemistry not given here) [compound 428] | 0.93
429 (GCGGUCCAGCAGGAUGUUGU; chemistry not given here) [compound 429] | 0.61
430 (GUCUAUGGCCAUGACAAUCU; chemistry not given here) [compound 430] | 1.11
431 (GGAGCAGGGAAAGCGCCUCC; chemistry not given here) [compound 431] | 0.79
432 (UGCCUCGCGUAGUUGACUGG; chemistry not given here) [compound 432] | 0.89
433 (GCGGAUGGCCUCCAUCUCCC; chemistry not given here) [compound 433] | 0.79
434 (UUUCAUAGGCGAAUACACCC; chemistry not given here) [compound 434] | 0.94
435 (GCCUGUCAGCGAGUCGGAGG; chemistry not given here) [compound 435] | 0.89
436 (CCACUUCAGCUGUUUCAUCC; chemistry not given here) [compound 436] | 0.78
437 (CAUCCGCUCCUGCAACUGCC; chemistry not given here) [compound 437] | 0.79
438 (UCUAGGGUUCAGGGAGCGCG; chemistry not given here) [compound 438] | 0.78
439 (CACCAACACGUCCCUCUCCU; chemistry not given here) [compound 439] | 0.62
440 (CAGGAGCAGGGAAAGCGCCU; chemistry not given here) [compound 440] | 0.88
441 (CAAUCUCCGCCAGGUAGAAG; chemistry not given here) [compound 441] | 0.84
442 (AUGUUGUCGGGUUUGAUGUC; chemistry not given here) [compound 442] | 0.83
443 (CCAUCCGCUCCUGCAACUGC; chemistry not given here) [compound 443] | 0.80

same assay, conditions: 50 nM oligonucleotide, 72 hours

Substance | Percent DMPK Reduction [%]
424 (CCAUUCACCAACACGUCCCU; chemistry not given here) [compound 424] | 86.83
425 (ACCAGGUACAGGUAGUUCUC; chemistry not given here) [compound 425] | 76.96
426 (CTGCAGUUUGCCCAUCCACG; chemistry not given here) [compound 426] | 60.08
427 (UUGUUCAUGAUCUUCAUGGC; chemistry not given here) [compound 427] | 45.23
428 (UUGAUGUCCCUGUGCACGU; chemistry not given here) [compound 428] | 43.07
429 (GCGGUCCAGCAGGAUGUUGU; chemistry not given here) [compound 429] | 83.64
430 (GUCUAUGGCCAUGACAAUCU; chemistry not given here) [compound 430] | 73.11
431 (GGAGCAGGGAAAGCGCCUCC; chemistry not given here) [compound 431] | 88.35
432 (UGCCUCGCGUAGUUGACUGG; chemistry not given here) [compound 432] | 88.02
433 (GCGGAUGGCCUCCAUCUCCC; chemistry not given here) [compound 433] | 71.77
434 (UUUCAUAGGCGAAUACACCC; chemistry not given here) [compound 434] | 53.28
435 (GCCUGUCAGCGAGUCGGAGG; chemistry not given here) [compound 435] | 75.67
436 (CCACUUCAGCUGUUUCAUCC; chemistry not given here) [compound 436] | 64.20
437 (CAUCCGCUCCUGCAACUGCC; chemistry not given here) [compound 437] | 76.81
438 (UCUAGGGUUCAGGGAGCGCG; chemistry not given here) [compound 438] | 83.22
439 (CACCAACACGUCCCUCUCCU; chemistry not given here) [compound 439] | 81.57
440 (CAGGAGCAGGGAAAGCGCCU; chemistry not given here) [compound 440] | 51.82
441 (CAAUCUCCGCCAGGUAGAAG; chemistry not given here) [compound 441] | 49.25
442 (AUGUUGUCGGGUUUGAUGUC; chemistry not given here) [compound 442] | 52.83
443 (CCAUCCGCUCCUGCAACUGC; chemistry not given here) [compound 443] | 71.62

same assay, conditions: 50 nM oligonucleotide, 72 hours, relative to vehicle control = 1.00

Substance | Normalized DMPK Remaining
424 (CCAUUCACCAACACGUCCCU; chemistry not given here) [compound 424] | 0.13
425 (ACCAGGUACAGGUAGUUCUC; chemistry not given here) [compound 425] | 0.23
426 (CTGCAGUUUGCCCAUCCACG; chemistry not given here) [compound 426] | 0.40
427 (UUGUUCAUGAUCUUCAUGGC; chemistry not given here) [compound 427] | 0.55
428 (UUGAUGUCCCUGUGCACGU; chemistry not given here) [compound 428] | 0.57
429 (GCGGUCCAGCAGGAUGUUGU; chemistry not given here) [compound 429] | 0.16
430 (GUCUAUGGCCAUGACAAUCU; chemistry not given here) [compound 430] | 0.27
431 (GGAGCAGGGAAAGCGCCUCC; chemistry not given here) [compound 431] | 0.12
432 (UGCCUCGCGUAGUUGACUGG; chemistry not given here) [compound 432] | 0.12
433 (GCGGAUGGCCUCCAUCUCCC; chemistry not given here) [compound 433] | 0.28
434 (UUUCAUAGGCGAAUACACCC; chemistry not given here) [compound 434] | 0.47
435 (GCCUGUCAGCGAGUCGGAGG; chemistry not given here) [compound 435] | 0.24
436 (CCACUUCAGCUGUUUCAUCC; chemistry not given here) [compound 436] | 0.36
437 (CAUCCGCUCCUGCAACUGCC; chemistry not given here) [compound 437] | 0.23
438 (UCUAGGGUUCAGGGAGCGCG; chemistry not given here) [compound 438] | 0.17
439 (CACCAACACGUCCCUCUCCU; chemistry not given here) [compound 439] | 0.18
440 (CAGGAGCAGGGAAAGCGCCU; chemistry not given here) [compound 440] | 0.48
441 (CAAUCUCCGCCAGGUAGAAG; chemistry not given here) [compound 441] | 0.51
442 (AUGUUGUCGGGUUUGAUGUC; chemistry not given here) [compound 442] | 0.47
443 (CCAUCCGCUCCUGCAACUGC; chemistry not given here) [compound 443] | 0.28
